Experimental data published in paper PMC9403976, “Elucidating the path to Plasmodium prolyl-tRNA synthetase inhibitors that overcome halofuginone resistance” (Nature Communications, 2022).
Values joined by “and” are separate entries in the source; they are usually repeats but may differ in a detail not shown here. Equal values may be shown once. Read-outs that look alike come from different tables or passages of the source. Marks after values point to notes of the source that are not given here.

Legend:
PfcProRS = molecular target: T1, PfcProRS (Plasmodium falciparum, UniProt Q8I5R7); assay type: binding; settings: for Normalized response, dose-response replicates (SI Fig 14): replicates 1-3
T1 construct: made in house; host or cells: E. coli SoluBL-21
T1 sequence (Q8I5R7 249-746): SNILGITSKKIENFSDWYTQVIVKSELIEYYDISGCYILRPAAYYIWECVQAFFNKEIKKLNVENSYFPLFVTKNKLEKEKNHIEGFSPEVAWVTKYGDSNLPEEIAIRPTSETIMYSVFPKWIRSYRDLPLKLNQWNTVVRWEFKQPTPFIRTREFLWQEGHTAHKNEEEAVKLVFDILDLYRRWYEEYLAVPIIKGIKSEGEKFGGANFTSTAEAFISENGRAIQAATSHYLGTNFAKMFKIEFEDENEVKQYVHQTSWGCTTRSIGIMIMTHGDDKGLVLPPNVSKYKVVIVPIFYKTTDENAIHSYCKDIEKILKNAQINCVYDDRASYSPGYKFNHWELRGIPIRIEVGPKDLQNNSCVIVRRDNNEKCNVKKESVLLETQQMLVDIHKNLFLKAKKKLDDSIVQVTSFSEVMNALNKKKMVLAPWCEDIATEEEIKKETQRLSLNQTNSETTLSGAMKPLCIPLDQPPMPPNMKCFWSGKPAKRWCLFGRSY

[1] = system: HFGR-I P. falciparum (elevated proline homeostasis and PfcProRS^L482H); assay: P. falciparum ABS growth assay, SYBR Green, 72 h, HFGR-I parasites; assay type: cell-based, Plasmodium falciparum; settings: for parasite growth, dose-response point: HFGR-I
How it was run: (§1)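 Asexual blood-stage Dd2 parasites, 1% parasitemia/1% hematocrit, RPMI + 0.5% Albumax; triplicate dose-response, 72 h. Readout SYBR Green 1 fluorescence. Controls: 10 μM dihydroartemisinin (kill), no compound (growth). EC50 values determined.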

P. falciparum Dd2-2D4 = assay: P. falciparum asexual blood stage (ABS) growth assay, SYBR Green, 72 h, wild-type parasites; assay type: cell-based, Plasmodium falciparum
[2] = system: halofuginone-induced P. falciparum (elevated proline homeostasis); assay: P. falciparum ABS growth assay, SYBR Green, 72 h, halofuginone-induced parasites; assay type: cell-based, Plasmodium falciparum; settings: for parasite growth, dose-response point: Halofuginone-Induced (HFG-Induced)
How it was run: as §1

HsProRS = HsProRS (Homo sapiens, UniProt P07814); assay: TR-FRET ligand displacement assay with tracer MAT379 (CoraFluor-1-Halo and anti-His6 antibody formats); assay type: binding; parameters: made in house; host or cells: E. coli SoluBL-21; settings: for normalized TR-FRET signal (dose-response replicates): SI Fig 17a
Sequence of HsProRS (P07814 996-1512): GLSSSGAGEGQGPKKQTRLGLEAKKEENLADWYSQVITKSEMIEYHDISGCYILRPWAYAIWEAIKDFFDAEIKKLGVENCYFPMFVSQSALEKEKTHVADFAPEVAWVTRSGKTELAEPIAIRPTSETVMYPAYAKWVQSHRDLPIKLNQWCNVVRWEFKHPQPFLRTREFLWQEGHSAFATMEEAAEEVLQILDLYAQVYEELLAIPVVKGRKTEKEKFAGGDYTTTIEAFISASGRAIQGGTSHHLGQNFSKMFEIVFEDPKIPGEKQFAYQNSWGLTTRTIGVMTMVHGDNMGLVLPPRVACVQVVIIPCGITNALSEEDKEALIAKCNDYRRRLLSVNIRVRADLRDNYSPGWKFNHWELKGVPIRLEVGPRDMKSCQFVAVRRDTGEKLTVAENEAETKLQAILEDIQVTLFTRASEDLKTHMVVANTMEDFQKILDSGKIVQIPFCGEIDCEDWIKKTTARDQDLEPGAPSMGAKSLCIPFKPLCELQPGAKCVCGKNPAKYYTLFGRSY

[3] = 10 μM, compound had <50% inhibition
[4] = Log[inhibitor] (M) -5.000, series r4-r15

SMILES: CC(C)(C)OC(=O)N1CCC[C@H]1C(=O)NC1CCN(C(=O)Nc2nccnc2C(=O)NC2Cc3ccccc3C2)CC1 [compound 31]
- Normalized response, dose-response replicates (SI Fig 14) (PfcProRS; Log[inhibitor] (M) -5.000): 5.64E-01 and 5.99E-01 and 6.18E-01
- Normalized response, dose-response replicates (SI Fig 14) (PfcProRS; Log[inhibitor] (M) -5.301): 6.96E-01 and 6.54E-01 and 6.55E-01
- Normalized response, dose-response replicates (SI Fig 14) (PfcProRS; Log[inhibitor] (M) -5.601): 8.77E-01 and 8.39E-01 and 9.75E-01
- Normalized response, dose-response replicates (SI Fig 14) (PfcProRS; Log[inhibitor] (M) -5.904): 9.20E-01 and 8.45E-01 and 8.88E-01
- Normalized response, dose-response replicates (SI Fig 14) (PfcProRS; Log[inhibitor] (M) -6.208): 9.89E-01 and 9.27E-01 and 1.07E+00
- Normalized response, dose-response replicates (SI Fig 14) (PfcProRS; Log[inhibitor] (M) -6.509): 1.00E+00 and 9.45E-01 and 8.96E-01
- Normalized response, dose-response replicates (SI Fig 14) (PfcProRS; Log[inhibitor] (M) -6.796): 8.17E-01 and 9.17E-01 and 9.69E-01
- Normalized response, dose-response replicates (SI Fig 14) (PfcProRS; Log[inhibitor] (M) -7.108): 9.90E-01 and 9.44E-01 and 8.89E-01
- Normalized response, dose-response replicates (SI Fig 14) (PfcProRS; Log[inhibitor] (M) -7.409): 9.05E-01 and 8.67E-01 and 8.30E-01
- Normalized response, dose-response replicates (SI Fig 14) (PfcProRS; Log[inhibitor] (M) -7.710): 9.25E-01 and 1.08E+00 and 9.24E-01
- Normalized response, dose-response replicates (SI Fig 14) (PfcProRS; Log[inhibitor] (M) -8.000): 8.19E-01 and 1.06E+00 and 9.65E-01
- Normalized response, dose-response replicates (SI Fig 14) (PfcProRS; Log[inhibitor] (M) -8.301): 1.15E+00 and 1.07E+00 (2×)
- Normalized response, dose-response replicates (SI Fig 14) (PfcProRS; Log[inhibitor] (M) -8.602): 1.06E+00 and 1.03E+00 and 1.05E+00
- Normalized response, dose-response replicates (SI Fig 14) (PfcProRS; Log[inhibitor] (M) -9.000): 8.95E-01 and 9.81E-01 and 1.04E+00
- Normalized response, dose-response replicates (SI Fig 14) (PfcProRS; Log[inhibitor] (M) -9.301): 1.02E+00 and 9.15E-01 and 1.14E+00
- PfcProRS -- best Kd (PfcProRS; SI Fig 16a, values on -log scale): 5.701
- percent growth at 10 μM, Dd2 HFGR-I [1, 3]: 103%^b
- % signal at 10 μM, HFGR1 ([1]; HFGR1, 10 μM): 103%
- parasite growth, dose-response point [1, 4]: 106 and 104 and 99
- parasite growth, dose-response point ([1]; Log[inhibitor] (M) -5.301): 101 and 100
- parasite growth, dose-response point ([1]; Log[inhibitor] (M) -5.602): 105 and 102 and 104
- parasite growth, dose-response point ([1]; Log[inhibitor] (M) -5.903): 95 and 102 and 101
- parasite growth, dose-response point ([1]; Log[inhibitor] (M) -6.204): 104 and 99 and 98
- parasite growth, dose-response point ([1]; Log[inhibitor] (M) -6.505): 99 and 95 and 97
- parasite growth, dose-response point ([1]; Log[inhibitor] (M) -6.806): 108 and 106 and 107
- parasite growth, dose-response point ([1]; Log[inhibitor] (M) -7.107): 106 and 105
- parasite growth, dose-response point ([1]; Log[inhibitor] (M) -7.408): 109 and 104 and 106
- parasite growth, dose-response point ([1]; Log[inhibitor] (M) -7.709): 108 and 106
- parasite growth, dose-response point ([1]; Log[inhibitor] (M) -8.010): 103 and 105
- parasite growth, dose-response point ([1]; Log[inhibitor] (M) -8.311): 108 and 105 and 104
- EC50 ([1]; Plasmodium falciparum, DD2, HFGR1, bound given in μM, read-out: Dd2 EC50 HFGR1, bound): > 10 µM
- percent growth at 10 μM, Dd2 wt (P. falciparum Dd2-2D4; [3]): 102%^b
- EC50 (P. falciparum Dd2-2D4; Plasmodium falciparum, wildtype (Dd2-2D4), bound given in μM, read-out: Dd2 EC50 wildtype (Dd2-2D4), bound): > 10 µM
- % signal at 10 μM, wildtype (Dd2-2D4) (P. falciparum Dd2-2D4; wildtype (Dd2-2D4), 10 μM): 102%
- percent growth at 10 μM, Dd2 Halofuginone-induced [2, 3]: 98%^b
- parasite growth, dose-response point [2, 4]: 103 and 98 and 92
- parasite growth, dose-response point ([2]; Log[inhibitor] (M) -5.301): 107 and 109 and 115
- parasite growth, dose-response point ([2]; Log[inhibitor] (M) -5.602): 124 and 110 and 116
- parasite growth, dose-response point ([2]; Log[inhibitor] (M) -5.903): 117 and 106 and 104
- parasite growth, dose-response point ([2]; Log[inhibitor] (M) -6.204): 111 and 107 and 99
- parasite growth, dose-response point ([2]; Log[inhibitor] (M) -6.505): 98 (2×) and 104
- parasite growth, dose-response point ([2]; Log[inhibitor] (M) -6.806): 109 and 112 and 103
- parasite growth, dose-response point ([2]; Log[inhibitor] (M) -7.107): 105 and 103 and 108
- parasite growth, dose-response point ([2]; Log[inhibitor] (M) -7.408): 116 and 109 and 103
- parasite growth, dose-response point ([2]; Log[inhibitor] (M) -7.709): 115 and 100 and 119
- parasite growth, dose-response point ([2]; Log[inhibitor] (M) -8.010): 104 and 100 and 101
- parasite growth, dose-response point ([2]; Log[inhibitor] (M) -8.311): 107 and 102 and 101
- EC50 ([2]; Plasmodium falciparum, DD2, halofuginone-induced, bound given in μM, read-out: Dd2 EC50 halofuginone-induced, bound): > 10 µM
- % signal at 10 μM, halofuginone-induced ([2]; halofuginone-induced, 10 μM): 97.7%
- HsProRS % signal at 10 μM, + 100 μM proline (HsProRS; + 100 μM proline, 10 μM): 59.4%
- Kd (HsProRS; HsProRS (KD [nM]) −, absence of substrates, 250 nM MAT379): 5130 nM
- Kd (HsProRS; HsProRS KD + 100 μM proline, bound, + 100 μM proline, bound given in μM): > 5090 nM
- normalised signal, dose-response point (Fig 4d) (HsProRS; Log[inhibitor] (M) -5.000, series of 31): 4.79E-01 and 4.46E-01
- normalised signal, dose-response point (Fig 4d) (HsProRS; Log[inhibitor] (M) -5.286): 6.67E-01 and 6.31E-01
- normalised signal, dose-response point (Fig 4d) (HsProRS; Log[inhibitor] (M) -5.574): 7.84E-01 and 7.77E-01
- normalised signal, dose-response point (Fig 4d) (HsProRS; Log[inhibitor] (M) -5.862): 8.87E-01 and 8.96E-01
- normalised signal, dose-response point (Fig 4d) (HsProRS; Log[inhibitor] (M) -6.151): 9.64E-01 and 9.65E-01
- normalised signal, dose-response point (Fig 4d) (HsProRS; Log[inhibitor] (M) -6.428): 9.34E-01 and 9.44E-01
- normalised signal, dose-response point (Fig 4d) (HsProRS; Log[inhibitor] (M) -6.729): 9.61E-01 and 9.47E-01
- normalised signal, dose-response point (Fig 4d) (HsProRS; Log[inhibitor] (M) -7.006): 9.42E-01 and 8.63E-01
- normalised signal, dose-response point (Fig 4d) (HsProRS; Log[inhibitor] (M) -7.295): 9.55E-01 and 9.92E-01
- normalised signal, dose-response point (Fig 4d) (HsProRS; Log[inhibitor] (M) -7.585): 1.05E+00 and 9.07E-01
- normalised signal, dose-response point (Fig 4d) (HsProRS; Log[inhibitor] (M) -7.875): 9.50E-01 and 9.36E-01
- normalised signal, dose-response point (Fig 4d) (HsProRS; Log[inhibitor] (M) -8.135): 9.31E-01 and 9.40E-01
- normalised signal, dose-response point (Fig 4d) (HsProRS; Log[inhibitor] (M) -8.477): 9.84E-01 and 9.46E-01
- normalised signal, dose-response point (Fig 4d) (HsProRS; Log[inhibitor] (M) -8.699): 8.68E-01 and 9.88E-01
- normalised signal, dose-response point (Fig 4d) (HsProRS; Log[inhibitor] (M) -9.176): 1.01E+00 and 1.00E+00
- normalised signal, dose-response point (Fig 4d) (HsProRS; Log[inhibitor] (M) -9.363): 9.70E-01 and 9.49E-01
- normalized TR-FRET signal (dose-response replicates) (HsProRS; Log[inhibitor] (M) -5.000): 3.75E-01 and 3.29E-01 and 2.94E-01
- normalized TR-FRET signal (dose-response replicates) (HsProRS; Log[inhibitor] (M) -5.301): 5.13E-01 and 4.93E-01 and 4.68E-01
- normalized TR-FRET signal (dose-response replicates) (HsProRS; Log[inhibitor] (M) -5.601): 7.38E-01 and 6.61E-01 and 6.36E-01
- normalized TR-FRET signal (dose-response replicates) (HsProRS; Log[inhibitor] (M) -5.904): 7.87E-01 and 7.39E-01 and 7.57E-01
- normalized TR-FRET signal (dose-response replicates) (HsProRS; Log[inhibitor] (M) -6.208): 8.48E-01 and 8.27E-01 and 8.24E-01
- normalized TR-FRET signal (dose-response replicates) (HsProRS; Log[inhibitor] (M) -6.509): 8.55E-01 and 8.71E-01 and 8.75E-01
- normalized TR-FRET signal (dose-response replicates) (HsProRS; Log[inhibitor] (M) -6.796): 8.61E-01 and 8.99E-01 and 9.13E-01
- normalized TR-FRET signal (dose-response replicates) (HsProRS; Log[inhibitor] (M) -7.108): 8.48E-01 and 8.44E-01 and 8.72E-01
- normalized TR-FRET signal (dose-response replicates) (HsProRS; Log[inhibitor] (M) -7.409): 9.07E-01 and 8.89E-01 and 8.65E-01
- normalized TR-FRET signal (dose-response replicates) (HsProRS; Log[inhibitor] (M) -7.710): 8.96E-01 and 8.93E-01 and 8.29E-01
- normalized TR-FRET signal (dose-response replicates) (HsProRS; Log[inhibitor] (M) -8.000): 9.41E-01 and 8.72E-01 and 9.37E-01
- normalized TR-FRET signal (dose-response replicates) (HsProRS; Log[inhibitor] (M) -8.301): 8.90E-01 (2×) and 9.30E-01
- normalized TR-FRET signal (dose-response replicates) (HsProRS; Log[inhibitor] (M) -8.602): 9.13E-01 and 9.30E-01 and 9.15E-01
- normalized TR-FRET signal (dose-response replicates) (HsProRS; Log[inhibitor] (M) -9.000): 9.52E-01 and 8.88E-01 and 9.53E-01
- normalized TR-FRET signal (dose-response replicates) (HsProRS; Log[inhibitor] (M) -9.301): 9.64E-01 and 9.01E-01 and 8.76E-01
